Patent publication US20080085893A1, “MATRIX METALLOPROTEASE INHIBITORS” (priority 2006, published 2008)
Values joined by “and” are separate entries in the source; they are usually repeats but may differ in a detail not shown here. Identical values can stand only once.

Tests used:
Type in all cases: biochemical
[1] = molecular target: T1, human MMP-1 (amino acids 100-262) (Homo sapiens, UniProt P03956); assay: MMP dose response assay for determining IC50, MMP-1; conditions: recombinant catalytic domain, fluorescent-quench substrate 100 nM
T1 construct: human MMP-1 (amino acids 100-262); made in house
T1 sequence (P03956 100-262): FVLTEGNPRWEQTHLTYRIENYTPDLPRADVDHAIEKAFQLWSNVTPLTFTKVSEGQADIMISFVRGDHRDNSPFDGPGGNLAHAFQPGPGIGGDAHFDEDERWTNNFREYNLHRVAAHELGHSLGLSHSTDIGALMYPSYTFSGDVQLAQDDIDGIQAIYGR
Method: MMP Dose Response Assay for Determining IC50
The following method was used for determining IC50 values of different inhibitor compounds against multiple MMP enzymes. Frozen stocks of recombinantly produced MMPs were prepared in assay buffer (50 mM HEPES pH 7.4, 10 mM CaCl2, 0.05% Brij-35). […] Enzyme concentrations in the assay were determined empirically and set such that proteolytic activity was maintained in a linear range over the time-course of the experiment. […] Each concentration for each test compound was tested in triplicate. MMP enzymes were equilibrated with compounds for 1 hour at room temperature, then a fluorescent-quench substrate (Acetyl-Cys(Eu)-Pro-Leu-Gly-Leu-Lys-(QSY7)-Ala-Arg-amide) was added to a final concentration of 100 nM. […] Data was analyzed by first calculating average background value from wells that contained only substrate, and this value was subtracted from the entire plate. The 100%, or maximum value, was determined by averaging control wells that contained enzyme, substrate and DMSO. For each well, the percent of control was calculated by dividing the well value by the average DMSO value obtained above.

[2] = molecular target: T2, human MMP-2 (amino acids 1-660) (Homo sapiens, UniProt P08253); assay: MMP dose response assay for determining IC50, MMP-2; conditions: recombinant enzyme, fluorescent-quench substrate 100 nM; read-out: MMP-2
T2 construct: human MMP-2 (amino acids 1-660); made in house
T2 sequence (P08253 110-660): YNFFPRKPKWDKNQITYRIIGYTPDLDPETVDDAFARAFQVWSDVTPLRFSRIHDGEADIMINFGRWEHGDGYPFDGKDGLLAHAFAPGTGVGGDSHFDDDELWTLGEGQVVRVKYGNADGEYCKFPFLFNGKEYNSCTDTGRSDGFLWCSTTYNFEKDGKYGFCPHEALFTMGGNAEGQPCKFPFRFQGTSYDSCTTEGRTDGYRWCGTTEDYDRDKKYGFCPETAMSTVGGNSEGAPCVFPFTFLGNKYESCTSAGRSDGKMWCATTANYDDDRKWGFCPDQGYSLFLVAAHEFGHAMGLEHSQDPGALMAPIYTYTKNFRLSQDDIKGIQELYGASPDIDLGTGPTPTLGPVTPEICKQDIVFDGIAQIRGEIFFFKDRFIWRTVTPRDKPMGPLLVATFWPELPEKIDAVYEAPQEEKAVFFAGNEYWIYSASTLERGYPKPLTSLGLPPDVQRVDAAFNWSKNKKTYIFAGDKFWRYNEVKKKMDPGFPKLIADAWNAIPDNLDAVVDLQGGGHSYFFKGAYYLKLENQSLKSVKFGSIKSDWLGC
In short: (§1)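 Recombinant enzymes in 50 mM HEPES pH 7.4, 10 mM CaCl2, 0.05% Brij-35, at empirically set levels keeping activity linear, preincubated 1 h at room temperature with compound in triplicate. Fluorescence-quench peptide substrate (Eu/QSY7) added at 100 nM final. Background-subtracted signal expressed as percent of DMSO control for IC50.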

[3] = molecular target: T3, human MMP-9 (amino acids 107-446) (Homo sapiens, UniProt P14780); assay: MMP dose response assay for determining IC50, MMP-9; conditions: recombinant enzyme, fluorescent-quench substrate 100 nM; read-out: MMP-9
T3 construct: human MMP-9 (amino acids 107-446); made in house
In short: as §1

T3 sequence (P14780 107-446): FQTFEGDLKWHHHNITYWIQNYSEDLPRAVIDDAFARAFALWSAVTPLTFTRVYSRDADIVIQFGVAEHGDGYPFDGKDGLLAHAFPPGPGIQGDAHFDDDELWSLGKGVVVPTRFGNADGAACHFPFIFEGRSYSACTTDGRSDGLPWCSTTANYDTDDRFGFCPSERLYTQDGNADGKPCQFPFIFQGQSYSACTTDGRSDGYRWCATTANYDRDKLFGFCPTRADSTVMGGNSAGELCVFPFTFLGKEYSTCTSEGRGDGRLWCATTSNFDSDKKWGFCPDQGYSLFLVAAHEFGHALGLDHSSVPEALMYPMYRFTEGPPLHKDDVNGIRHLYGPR

`Cc1ccc(Oc2ccc(N(C[C@H](Nc3ccc(F)c(F)c3)C(=O)NO)S(C)(=O)=O)cc2)cc1` [Example 41, N-Hydroxy (2S)-2-(3,4-difluorophenyl)amino-3-{N-[4-(4-methylphenoxy)phenyl],N-methanesulfonylamino}propionamide] was tested, and the IC50 [1] was > 10 µM, the IC50 [2] was 127 nM and the IC50 [3] was 2.56 nM.
In the case of `Cc1ccc(Oc2ccc(N(C[C@H](Nc3ccc(F)c(Cl)c3)C(=O)NO)S(C)(=O)=O)cc2)cc1` [Example 42, N-Hydroxy (2S)-2-(3-chloro-4-fluorophenyl)amino-3-{N-[4-(4-methylphenoxy)phenyl],N-methanesulfonylamino}propionamide], the IC50 [1] is reported as > 10 µM, the IC50 [2] is reported as 431 nM and the IC50 [3] is reported as 19.9 nM.
`Cc1ccc(Oc2ccc(N(C[C@H](Nc3ccc(Cl)cc3)C(=O)NO)S(C)(=O)=O)cc2)cc1` [Example 43, N-Hydroxy (2S)-2-(4-chlorophenyl)amino-3-{N-[4-(4-methylphenoxy)phenyl],N-methanesulfonylamino}propionamide] was tested, and the IC50 [1] was > 10 µM, the IC50 [2] was 336 nM and the IC50 [3] was 22 nM.
`Cc1ccc(Oc2ccc(N(C[C@H](Nc3cccc(Cl)c3)C(=O)NO)S(C)(=O)=O)cc2)cc1` [Example 44, N-Hydroxy (2S)-2-(3-chlorophenyl)amino-3-{N-[4-(4-methylphenoxy)phenyl],N-methanesulfonylamino}propionamide] was tested, and the IC50 [1] was > 10 µM, the IC50 [2] was 333 nM and the IC50 [3] was 19.7 nM.
`Cc1ccc(Oc2ccc(N(C[C@H](Nc3cccc(C(F)(F)F)c3)C(=O)NO)S(C)(=O)=O)cc2)cc1` [Example 45, N-Hydroxy (2S)-3-{N-[4-(4-methylphenoxy)phenyl],N-methanesulfonylamino}-2-(3-trifluorormethylphenyl)aminopropionamide] gave an IC50 [1] of 6 µM, an IC50 [2] of 682 nM and an IC50 [3] of 58.3 nM.
With `Cc1ccc(Oc2ccc(N(C[C@H](N[C@H](C)c3ccccc3)C(=O)NO)S(C)(=O)=O)cc2)cc1` [Example 46, N-Hydroxy (2S)-3-{N-[4-(4-methylphenoxy)phenyl],N-methanesulfonylamino}-2-[(1R)-1-phenyl-1-ethyl]aminopropionamide] the IC50 [1] was > 10 µM, the IC50 [2] was 24.1 nM and the IC50 [3] was 1.54 nM.
With `Cc1ccc(Oc2ccc(N(C[C@H](N[C@@H](C)c3ccccc3)C(=O)NO)S(C)(=O)=O)cc2)cc1` [Example 47, N-Hydroxy (2S)-3-{N-[4-(4-methylphenoxy)phenyl],N-methanesulfonylamino}-2-[(1S)-1-phenyl-1-ethyl]aminopropionamide] the IC50 [1] was 6.79 µM, the IC50 [2] was 11.7 nM and the IC50 [3] was 0.54 nM.
In the case of `Cc1ccc(Oc2ccc(N(C[C@H](Nc3ccc4ccccc4c3)C(=O)NO)S(C)(=O)=O)cc2)cc1` [Example 60, N-Hydroxy (2S)-3-{N-[4-(4-methylphenoxy)phenyl],N-methanesulfonylamino}-2-(naphthylen-2-yl)aminopropionamide], the IC50 [1] is reported as 5.98 µM and > 10 µM, the IC50 [2] is reported as 1440 nM and 875 nM and the IC50 [3] is reported as 86.5 nM and 93.8 nM.
With `CS(=O)(=O)N(C[C@H](O)C(=O)NO)c1ccc(C#Cc2ccc(Cl)cc2)cc1` [Example 62, N-Hydroxy (2S)-2-hydroxy-3-{N-[4-(4-chlorophenylacetylene)phenyl],N-methanesulfonylamino}propionamide] the IC50 [1] was > 10 µM, the IC50 [2] was 56.2 nM and the IC50 [3] was 47.3 nM.
With `CS(=O)(=O)N(C[C@H](O)C(=O)NO)c1ccc(C#Cc2cccs2)cc1` [Example 64, N-Hydroxy (2S)-2-hydroxy-3-{N-[4-(4-thiophen-2-ylacetylene)phenyl],N-methanesulfonylamino}propionamide] the IC50 [1] was > 10 µM, the IC50 [2] was 103 nM and the IC50 [3] was 774 nM.
With `CS(=O)(=O)N(C[C@@H](C(=O)NO)N1CCN(C(=O)OCc2ccccc2)CC1)c1ccc(Oc2ccc(C(F)(F)F)cc2)cc1` [Example 67, N-Hydroxy (2S)-2-[(4-benzyloxycarbonyl)piperazin-1-yl]-3-{N-[4-(4-trifluoromethylphenoxy)phenyl],N-methanesulfonylamino}propionamide] the IC50 [1] was > 10 µM, the IC50 [2] was 4.76 nM and 4.37 nM and the IC50 [3] was 6.52 nM and 8.51 nM.
With `CC(C)N(CCNC(=O)OCc1ccccc1)[C@@H](CN(c1ccc(Oc2ccc(C(F)(F)F)cc2)cc1)S(C)(=O)=O)C(=O)NO` [Example 68] the IC50 [1] was > 10 µM, the IC50 [2] was 262 nM and the IC50 [3] was 28.8 nM.
With `CC(C)N(Cc1ccccc1)[C@@H](CN(c1ccc(Oc2ccc(C(F)(F)F)cc2)cc1)S(C)(=O)=O)C(=O)NO` [Example 69, N-Hydroxy (2S)-2-[N-benzyl-N-(2-propyl)amino]-3-{N-[4-(4-trifluoromethylphenoxy)phenyl],N-methanesulfonylamino}propionamide] the IC50 [1] was > 10 µM, the IC50 [2] was 281 nM and the IC50 [3] was 67.5 nM.
In the case of `CS(=O)(=O)N(C[C@@H](C(=O)NO)N1CCS(=O)(=O)CC1)c1ccc(Oc2ccc(C(F)(F)F)cc2)cc1` [Example 70, N-Hydroxy (2S)-2-[1,1-bis(oxo)thiomorpholin-4-yl]-3-{N-[4-(4-trifluoromethylphenoxy)phenyl],N-methanesulfonylamino}propionamide], the IC50 [1] is reported as > 10 µM, the IC50 [2] is reported as 4.65 nM and 4.99 nM and 15.8 nM and the IC50 [3] is reported as 1.9 nM and 1.52 nM and 6.29 nM.
For `CS(=O)(=O)N(C[C@@H](C(=O)NO)N1CCC(O)CC1)c1ccc(Oc2ccc(C(F)(F)F)cc2)cc1` [Example 71, N-Hydroxy (2S)-2-(4-hydroxypiperidin-1-yl)-3-{N-[4-(4-trifluoromethylphenoxy)phenyl],N-methanesulfonylamino}propionamide], the IC50 [1] was 8.55 µM and > 10 µM, the IC50 [2] was 1.57 nM and 4.93 nM and 10.7 nM and the IC50 [3] was 0.66 nM and 1.45 nM and 3.56 nM.
In the case of `CS(=O)(=O)N(C[C@@H](C(=O)NO)N1Cc2ccccc2C1)c1ccc(Oc2ccc(C(F)(F)F)cc2)cc1` [Example 72, N-Hydroxy (2S)-2-(isoindolin-2-yl)-3-{N-[4-(4-trifluoromethylphenoxy)phenyl],N-methanesulfonylamino}propionamide], the IC50 [1] is reported as > 10 µM, the IC50 [2] is reported as 3.76 nM and 1.02 nM and the IC50 [3] is reported as 0.72 nM and 0.17 nM.
For `CN(C)[C@H]1CCN([C@@H](CN(c2ccc(Oc3ccc(C(F)(F)F)cc3)cc2)S(C)(=O)=O)C(=O)NO)C1` [Example 74, N-Hydroxy (2S)-2-[(3S)-3-N,N-dimethylaminopyrrolidin-1-yl]-3-{N-[4-(4-trifluoromethylphenoxy)phenyl],N-methanesulfonylamino}propionamide], the IC50 [1] was > 10 µM, the IC50 [2] was 17.7 nM and the IC50 [3] was 3.86 nM.
With `CN(C)[C@@H]1CCN([C@@H](CN(c2ccc(Oc3ccc(C(F)(F)F)cc3)cc2)S(C)(=O)=O)C(=O)NO)C1` [Example 75, N-Hydroxy (2S)-2-[(3R)-3-N,N-dimethylaminopyrrolidin-1-yl]-3-{N-[4-(4-trifluoromethylphenoxy)phenyl],N-methanesulfonylamino}propionamide] the IC50 [1] was > 10 µM, the IC50 [2] was 15.2 nM and 21.5 nM and the IC50 [3] was 2.18 nM and 3.16 nM.
`CS(=O)(=O)N(C[C@@H](C(=O)NO)N1CCC(c2ccccc2)CC1)c1ccc(Oc2ccc(C(F)(F)F)cc2)cc1` [Example 76, N-Hydroxy (2S)-3-{N-[4-(4-trifluoromethylphenoxy)phenyl],N-methanesulfonylamino}-2-(4-phenylpiperidin-1-yl)propionamide] was tested, and the IC50 [1] was > 10 µM, the IC50 [2] was 47.2 nM and the IC50 [3] was 17 nM.
With `CS(=O)(=O)N(C[C@@H](C(=O)NO)N1CCN(c2ccc(Cl)cc2)CC1)c1ccc(Oc2ccc(C(F)(F)F)cc2)cc1` [Example 77, N-Hydroxy (2S)-2-[4-(4-chlorophenyl)piperazin-1-yl]-3-{N-[4-(4-trifluoromethylphenoxy)phenyl],N-methanesulfonylamino}propionamide] the IC50 [1] was > 10 µM, the IC50 [2] was 119 nM and the IC50 [3] was 256 nM.
For `CS(=O)(=O)N(C[C@H](NCCc1c[nH]c2ccccc12)C(=O)NO)c1ccc(Oc2ccc(C(F)(F)F)cc2)cc1` [Example 78], the IC50 [1] was > 10 µM, the IC50 [2] was 318 nM and the IC50 [3] was 116 nM.
